IC50 data for 39 compounds are collected here from PubChem BioAssay AID712 (Emory University Molecular Libraries Screening Center, 2007).

For the assay, the target named is Heat shock protein HSP 90-alpha (Homo sapiens) (UniProt P07900). The experiment in a line: tumor Hsp90 inhibitor potency, dose response (AID 712). Particulars: Hsp90 inhibition assay.

Active and inactive are the calls of the source. No rule for the calls is given here.

Consider `O=C(O)c1cc(O)c2c(c1)C(=O)c1cccc(O)c1C2=O`, for which the IC50 is 3.34 µM.
The value for `CCc1ccc(-c2nnn(CCC(=O)OC)n2)cc1` was > 50 µM (inactive); that for `O=c1oc2c3c4c(cc2s1)CCCN4CCC3` was > 50 µM (inactive).
With `O=C(NC1(C(F)(F)F)Oc2ccc(Cl)cc2O1)N1CCC2(CC1)OCCO2` (centres undefined), the IC50 is 23.4 µM.
The value for `Nc1ccc(NS(=O)(=O)c2ccccc2N)cc1-c1ccccc1O` was > 50 µM (inactive); that for `CCn1c(CSc2nnc(-c3cccnc3)n2-c2ccccc2C)nc2cc(C(=O)O)ccc21` was 0.679 µM.
The value for `Nc1cccc2cccnc12` was > 50 µM (inactive); that for `CCOC(=O)c1c(C)[nH]c2ccc(O)cc12` was > 50 µM (inactive); that for `Cc1cccc(NC(=O)Cn2nnc(-c3cccs3)n2)c1C` was > 50 µM (inactive).
To `COc1ccc(C2=NO[C@@H]3C(=O)N(c4c(C)cccc4C)C(=O)[C@H]23)cc1OC` belongs 25.4 µM.
As to `CCc1nc(SCC(=O)c2ccc(O)cc2O)n[nH]1`, the IC50 was > 50 µM (inactive).
`Nc1ccc(Nc2nc3ccccc3s2)c(O)c1`: the IC50 was > 50 µM (inactive).
With `O=C1NCCCC2c3cc(O)c4ccccc4c3OC12N1CCCCC1` (centres undefined), the IC50 was 5.79 µM.
The value for `CC(Cc1ccc(O)c(O)c1)C(C)Cc1ccc(O)c(O)c1` (centres undefined) was 2.62 µM; that for `O=C(COc1ccc(-c2ccccc2)cc1)N1CCN(C(=O)c2cccnc2)CC1` was > 50 µM (inactive).
Regarding `Nc1cc(Cl)cc2cccnc12`, the IC50 is > 50 µM (inactive).
Consider `CCCCn1c(NC(=O)c2ccccc2)c(C#N)c2nc3ccccc3nc21`, for which the IC50 is 27.1 µM.
`COc1ccc(C2CC(c3ccccc3O)=NN2)cc1OC` (centres undefined): the IC50 is > 50 µM (inactive).
Regarding `O=S(=O)(Nc1ccc(Cl)cc1O)c1ccccc1`, the IC50 is > 50 µM (inactive).
To `CC(=O)Oc1cc2c(C(=O)NCCN3CCOCC3)c(C)oc2c2ccccc12` belongs 19.7 µM; to `N#Cc1c(N2CCCC2)nc(N)c2c(N)nc(N3CCCC3)cc12`, 2.41 µM.
The value for `O=C1c2ccccc2-c2onc3ccc(NCCCn4ccnc4)c1c23` was 0.28 µM; that for `O=C(CSc1nnc(Cc2cc(=O)[nH]c(=O)[nH]2)n1-c1ccccc1)NCC1CCCO1` (centres undefined) was > 50 µM (inactive).
Consider `NCc1cc(S(=O)(=O)Nc2cc(O)cc3cccnc23)ccc1F`, for which the IC50 is > 50 µM (inactive).
To `CCc1cc(C(=O)Cn2cnc3ccccc32)c(O)cc1O` belongs > 50 µM (inactive).
Consider `CCSCCOC(=O)C1=C(C)NC(=O)NC1c1ccccc1` (centres undefined), for which the IC50 is > 50 µM (inactive).
In the case of `O=C(O)c1ccccc1C1=Nc2ccc(O)cc2Oc2cc(O)ccc21`, the IC50 is 13 µM.
The value for `O=[N+]([O-])c1ccc(O)c2cccnc12` was > 50 µM (inactive); that for `Oc1c(Cl)cc(Cl)c2cccnc12` was > 50 µM (inactive).
To `COc1cc(NCCCC(C)=O)c2nccc(OCc3ccccc3)c2c1` belongs > 50 µM (inactive); to `Cc1ccc(CNc2ccc(O)cc2)cc1`, “inactive”; to `Cc1nnc(NC(=O)CSc2nc(N)cc(N)n2)s1`, > 50 µM (inactive).
With `O=C1c2ccccc2C(O)(O)C1(O)C1(O)C(=O)c2ccccc2C1(O)O` (centres undefined), the IC50 is 5 µM.
On to `Cc1nc(SCC(=O)c2ccc(O)cc2O)n[nH]1`, for which the IC50 is > 50 µM (inactive).
To `Cc1nc(-c2c(-c3ccc(O)cc3O)noc2C(F)(F)F)cs1` belongs 16.5 µM; to `Cn1c(=O)c2c(nc(CN3CCc4ccccc4C3)n2CCCO)n(C)c1=O`, > 50 µM (inactive); to `Cn1cnnc1SCC(=O)c1ccc2c(c1)CCCC2`, > 50 µM (inactive).
Take `CCn1c(CSc2nnc3ccccn23)nc2cc(C(=O)O)ccc21`: the IC50 is 1.11 µM.
To `O=C(c1sc2ccccc2c1Cl)N(Cc1ccco1)C1CCS(=O)(=O)C1` (centres undefined) belongs > 50 µM (inactive).
